Source: the supplement of paper PMC10702517
± gives the standard deviation.
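Throughout, for chemical recovery by SPE of plasma after PDMS sampling: over 400 spiked chemicals quantified by LC-HRMS or GC-HRMS via internal standard calibration, recovery relative to spike mix added to unspiked plasma extract to correct matrix effects.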

Test: chemical recovery from spiked human plasma; higher = better extraction
Settings: pooled human plasma; extraction method: SPE only (HLB 96-well), PES comparison experiment
`CN1CCN(C2=Nc3cc(Cl)ccc3Nc3ccccc32)CC1` [Clozapine] gave a chemical recovery of 27.7 ± 11%. Work on `Cc1cccc(C)c1N(Cn1cccn1)C(=O)CCl` [Metazachlor] yielded a chemical recovery of 53.5 ± 7.4%. With `c1ccc2[nH]nnc2c1` [1H-Benzotriazole] the chemical recovery was 53.9 ± 5.8%. `N#C/N=C1\SCCN1Cc1ccc(Cl)nc1` [Thiacloprid] gave a chemical recovery of 55.7 ± 4.2%. With `CSc1nc(NC2CC2)nc(NC(C)(C)C)n1` [Irgarol] the chemical recovery was 44.2 ± 6.4%. In the case of `Cc1ccccc1N` [o-Toluidine], the chemical recovery is reported as 6.06 ± 5.9%. For `Clc1ccc(COC(Cn2ccnc2)c2ccc(Cl)cc2Cl)c(Cl)c1` (configuration not stated) [Miconazole], the chemical recovery was 40.4 ± 10%. In the case of `CCC(C)OC(=O)N1CCCCC1CCO` (configuration not stated) [Icaridin], the chemical recovery is reported as 43.2 ± 8.4%. In the case of `CN(C)C(=O)Nc1ccc(Oc2ccc(Cl)cc2)cc1` [Chloroxuron], the chemical recovery is reported as 49.8 ± 7.3%. For `O=C1CC2(CCCCC2)CN1` [Gabapentin-Lactam], the chemical recovery was 48.4 ± 5.6%. For `CCOc1nc2cccc(C(=O)O)c2n1Cc1ccc(-c2ccccc2-c2nnn[nH]2)cc1` [Candesartan], the chemical recovery was 36.9 ± 3.9%. Work on `N#Cc1nn(-c2c(Cl)cc(C(F)(F)F)cc2Cl)c(N)c1C(F)(F)F` [Fipronil desulfinyl] yielded a chemical recovery of 67.3 ± 7.3%. Work on `CCOCCN(C(=O)CCl)C(=C(C)C)c1ccccc1` [Pethoxamid] yielded a chemical recovery of 49.5 ± 6.9%. In the case of `CCCOC(=O)c1ccc(O)cc1` [Propylparaben], the chemical recovery is reported as 67.9 ± 7.4%. `CC(Cc1ccc(C(C)(C)C)cc1)CN1C[C@@H](C)O[C@@H](C)C1` (some centres not stated) [Fenpropimorph] gave a chemical recovery of 43.4 ± 8%. Compound `CC(C)c1ccc(NC(=O)N(C)C)cc1` [Isoproturon] has a chemical recovery of 53.4 ± 6.7%. For `CN(C/C=C/C#CC(C)(C)C)Cc1cccc2ccccc12` [Terbinafine], the chemical recovery was 50 ± 10%. In the case of `OC(Cn1cncn1)(Cn1cncn1)c1ccc(F)cc1F` [Fluconazole], the chemical recovery is reported as 47 ± 6.6%. In the case of `c1ccc2c(c1)Cc1cc3ccccc3cc1-2` [Benzo(b)fluorene], the chemical recovery is reported as 17.5 ± 3.4%. In the case of `Cn1ncc(N)c(Cl)c1=O` [Methyldesphenylchloridazon], the chemical recovery is reported as 35.8 ± 1.2%. Compound `CCNc1nc(Cl)nc(NC(C)C)n1` [Atrazine] has a chemical recovery of 50.6 ± 6.8%. For `Cc1ccc(-c2cc(C(F)(F)F)nn2-c2ccc(S(N)(=O)=O)cc2)cc1` [Celecoxib], the chemical recovery was 47.6 ± 5%. For `O=C(Nc1ccc(Cl)cc1)Nc1ccc(Cl)c(Cl)c1` [Triclocarban], the chemical recovery was 25.7 ± 4.4%. Compound `NC(=O)N1c2ccccc2CC(O)c2ccccc21` (configuration not stated) [10,11-Dihydro-10-hydroxycarbamazepine] has a chemical recovery of 51.2 ± 4.5%. In the case of `COCN(COC)c1nc(N(COC)COC)nc(N(COC)COC)n1` [Hexa(methoxymethyl)melamine], the chemical recovery is reported as 7.63 ± 2.7%. Compound `C[C@]12CC(=O)[C@H]3[C@@H](CCC4=CC(=O)CC[C@@]43C)[C@@H]1CC[C@@H]2O` [11-Ketotestosterone] has a chemical recovery of 50.5 ± 4.8%.

Same assay, conditions: pooled human plasma; extraction method: solvent precipitation (ACN + hexane)
With `N#Cc1cc(Br)c(O)c(Br)c1` [Bromoxynil] the chemical recovery was 68.2 ± 6.9%. Compound `COC(=O)Nc1nc2ccccc2[nH]1` [Carbendazim] has a chemical recovery of 76.8 ± 3.4%. `CCc1cccc(C)c1N(C(=O)C(=O)O)C(C)COC` (configuration not stated) [Metolachlor OA] gave a chemical recovery of 73.7 ± 3.3%. `CC(C)CC(C)(O)C#CC(C)(O)CC(C)C` (configuration not stated) [TMDD] showed a chemical recovery of 77.6 ± 7%. Work on `CC/C(=N\OC/C=C/Cl)C1=C(O)CC(C2CCOCC2)CC1=O` (configuration not stated) [Tepraloxydim] yielded a chemical recovery of 73.8 ± 3.1%. For `CC(C)NCC(O)COc1ccc(COCCOC(C)C)cc1` (configuration not stated) [Bisoprolol], the chemical recovery was 70.7 ± 1.7%. Work on `Cc1ccc2[nH]nnc2c1` [5-Methyl-1H-benzotriazole] yielded a chemical recovery of 58.1 ± 3.9%. Compound `CN1CCN(C2=Nc3cc(Cl)ccc3Nc3ccccc32)CC1` [Clozapine] has a chemical recovery of 68.3 ± 3.6%. For `Cc1cccc(C)c1N(Cn1cccn1)C(=O)CCl` [Metazachlor], the chemical recovery was 66.2 ± 2.7%. With `c1ccc2[nH]nnc2c1` [1H-Benzotriazole] the chemical recovery was 62.5 ± 4.5%. `N#C/N=C1\SCCN1Cc1ccc(Cl)nc1` [Thiacloprid] showed a chemical recovery of 79.2 ± 2.9%. `CSc1nc(NC2CC2)nc(NC(C)(C)C)n1` [Irgarol] showed a chemical recovery of 81.5 ± 4.4%. In the case of `Cc1ccccc1N` [o-Toluidine], the chemical recovery is reported as 17.2 ± 2.6%. With `Clc1ccc(COC(Cn2ccnc2)c2ccc(Cl)cc2Cl)c(Cl)c1` (configuration not stated) [Miconazole] the chemical recovery was 85.3 ± 8.5%. Work on `O=C1CC2(CCCCC2)CN1` [Gabapentin-Lactam] yielded a chemical recovery of 71.2 ± 2.9%. For `CCOc1nc2cccc(C(=O)O)c2n1Cc1ccc(-c2ccccc2-c2nnn[nH]2)cc1` [Candesartan], the chemical recovery was 58.8 ± 12%. `N#Cc1nn(-c2c(Cl)cc(C(F)(F)F)cc2Cl)c(N)c1C(F)(F)F` [Fipronil desulfinyl] gave a chemical recovery of 53.7 ± 4.2%. `CCOCCN(C(=O)CCl)C(=C(C)C)c1ccccc1` [Pethoxamid] gave a chemical recovery of 56.3 ± 2.8%. Compound `CCCOC(=O)c1ccc(O)cc1` [Propylparaben] has a chemical recovery of 70.6 ± 3.7%. Work on `CC(Cc1ccc(C(C)(C)C)cc1)CN1C[C@@H](C)O[C@@H](C)C1` (some centres not stated) [Fenpropimorph] yielded a chemical recovery of 80.2 ± 11%. Compound `c1ccc2c(c1)-c1cccc3cccc-2c13` [Fluoranthene] has a chemical recovery of 69 ± 3.7%. Work on `CC(C)c1ccc(NC(=O)N(C)C)cc1` [Isoproturon] yielded a chemical recovery of 74.8 ± 3.5%. For `CN(C/C=C/C#CC(C)(C)C)Cc1cccc2ccccc12` [Terbinafine], the chemical recovery was 86.4 ± 13%. In the case of `OC(Cn1cncn1)(Cn1cncn1)c1ccc(F)cc1F` [Fluconazole], the chemical recovery is reported as 77.1 ± 3.1%. Compound `c1ccc2c(c1)Cc1cc3ccccc3cc1-2` [Benzo(b)fluorene] has a chemical recovery of 69.1 ± 5.1%. Compound `CCNc1nc(Cl)nc(NC(C)C)n1` [Atrazine] has a chemical recovery of 62.9 ± 5.5%. With `Cc1ccc(-c2cc(C(F)(F)F)nn2-c2ccc(S(N)(=O)=O)cc2)cc1` [Celecoxib] the chemical recovery was 42.7 ± 2.1%. In the case of `O=C(Nc1ccc(Cl)cc1)Nc1ccc(Cl)c(Cl)c1` [Triclocarban], the chemical recovery is reported as 55.4 ± 4.4%. With `NC(=O)N1c2ccccc2CC(O)c2ccccc21` (configuration not stated) [10,11-Dihydro-10-hydroxycarbamazepine] the chemical recovery was 71.1 ± 3%. For `Clc1cc(-c2cc(Cl)c(Cl)c(Cl)c2Cl)c(Cl)c(Cl)c1Cl` [PCB194], the chemical recovery was 2.72 ± 0.18%. In the case of `COCN(COC)c1nc(N(COC)COC)nc(N(COC)COC)n1` [Hexa(methoxymethyl)melamine], the chemical recovery is reported as 72.5 ± 2.8%.

Test: chemical recovery by SPE of plasma after PDMS sampling; higher = better extraction
Settings: pooled human plasma; extraction method: HLB SPE of plasma after PES; equilibration time (d): 1
With `N#Cc1cc(Br)c(O)c(Br)c1` [Bromoxynil] the “chemical recovery by SPE of plasma” value was 58.5 ± 9.5%. In the case of `CC(C)(C)Nc1nc(N)nc(Cl)n1` [Desethylterbutylazine], the “chemical recovery by SPE of plasma” value is reported as 10 ± 1.1%. For `COC(=O)Nc1nc2ccccc2[nH]1` [Carbendazim], the “chemical recovery by SPE of plasma” value was 31.6 ± 3.2%. For `C[C@]12CC[C@H]3[C@@H](CCC4=CC(=O)CC[C@@]43C)[C@@H]1CC[C@@H]2O` [Testosterone], the “chemical recovery by SPE of plasma” value was 16 ± 3.3%. In the case of `CCc1cccc(C)c1N(C(=O)C(=O)O)C(C)COC` (configuration not stated) [Metolachlor OA], the “chemical recovery by SPE of plasma” value is reported as 32.4 ± 6.7%. With `C[C@]12C=CC(=O)C=C1CC[C@@H]1[C@@H]2C(=O)C[C@@]2(C)[C@H]1CC[C@]2(O)C(=O)CO` [Prednisone] the “chemical recovery by SPE of plasma” value was 41.6 ± 4.3%. For `CC/C(=N\OC/C=C/Cl)C1=C(O)CC(C2CCOCC2)CC1=O` (configuration not stated) [Tepraloxydim], the “chemical recovery by SPE of plasma” value was 47.5 ± 6.9%. With `CC(C)NCC(O)COc1ccc(COCCOC(C)C)cc1` (configuration not stated) [Bisoprolol] the “chemical recovery by SPE of plasma” value was 32.2 ± 3.3%. For `Cc1ccc2[nH]nnc2c1` [5-Methyl-1H-benzotriazole], the “chemical recovery by SPE of plasma” value was 45.5 ± 4.2%. With `CN1CCN(C2=Nc3cc(Cl)ccc3Nc3ccccc32)CC1` [Clozapine] the “chemical recovery by SPE of plasma” value was 1.19 ± 0.08%. With `Cc1cccc(C)c1N(Cn1cccn1)C(=O)CCl` [Metazachlor] the “chemical recovery by SPE of plasma” value was 1.5 ± 0.11%. With `c1ccc2[nH]nnc2c1` [1H-Benzotriazole] the “chemical recovery by SPE of plasma” value was 47.4 ± 3.6%. In the case of `N#C/N=C1\SCCN1Cc1ccc(Cl)nc1` [Thiacloprid], the “chemical recovery by SPE of plasma” value is reported as 39.3 ± 6%. With `CSc1nc(NC2CC2)nc(NC(C)(C)C)n1` [Irgarol] the “chemical recovery by SPE of plasma” value was 0.863 ± 0.085%. For `Cc1ccccc1N` [o-Toluidine], the “chemical recovery by SPE of plasma” value was 4.67 ± 6.8%. In the case of `Clc1ccc(COC(Cn2ccnc2)c2ccc(Cl)cc2Cl)c(Cl)c1` (configuration not stated) [Miconazole], the “chemical recovery by SPE of plasma” value is reported as 0.659 ± 0.14%. With `CCC(C)OC(=O)N1CCCCC1CCO` (configuration not stated) [Icaridin] the “chemical recovery by SPE of plasma” value was 2.46 ± 0.24%. In the case of `CN(C)C(=O)Nc1ccc(Oc2ccc(Cl)cc2)cc1` [Chloroxuron], the “chemical recovery by SPE of plasma” value is reported as 11 ± 2.2%. In the case of `O=C1CC2(CCCCC2)CN1` [Gabapentin-Lactam], the “chemical recovery by SPE of plasma” value is reported as 19.4 ± 2.5%. With `CCOc1nc2cccc(C(=O)O)c2n1Cc1ccc(-c2ccccc2-c2nnn[nH]2)cc1` [Candesartan] the “chemical recovery by SPE of plasma” value was 48 ± 8.7%. With `N#Cc1nn(-c2c(Cl)cc(C(F)(F)F)cc2Cl)c(N)c1C(F)(F)F` [Fipronil desulfinyl] the “chemical recovery by SPE of plasma” value was 17.6 ± 2.5%. With `CCCOC(=O)c1ccc(O)cc1` [Propylparaben] the “chemical recovery by SPE of plasma” value was 40.3 ± 8.2%. In the case of `CC(Cc1ccc(C(C)(C)C)cc1)CN1C[C@@H](C)O[C@@H](C)C1` (some centres not stated) [Fenpropimorph], the “chemical recovery by SPE of plasma” value is reported as 0.124 ± 0.08%. For `CC(C)c1ccc(NC(=O)N(C)C)cc1` [Isoproturon], the “chemical recovery by SPE of plasma” value was 5.76 ± 0.47%. In the case of `CN(C/C=C/C#CC(C)(C)C)Cc1cccc2ccccc12` [Terbinafine], the “chemical recovery by SPE of plasma” value is reported as 0.265 ± 0.18%.
